Converted amounts (≈) assume the structure as drawn. “And” between values parts separate entries of the source, which are not always exact repeats. Identical values can stand only once. Like-named read-outs stand apart in the source and are kept apart here.
Experiments:
[1] = Measurement of the membrane boundary potential (K+-nonactin conductance); conditions: 0.1 M KCl, pH 7.4, 50 mV
Method: Measurement of the membrane boundary potential. Virtually solvent-free planar lipid bilayers were made of DPhPC or DPhPG as described above. After the membrane was completely formed and stabilized and its stability was assessed by applying voltages in a range from −200 to 200 mV with a 50 mV step for 5–10 min, stock solutions of nonactin A (7 μg/mL in ethanol) were added to the bathing solution (0.1 M KCl, 5 mM HEPES, pH 7.4) in both chamber compartments to obtain a final concentration ranging from 0.1 to 1 μM.
Test derivatives (4, 20, 22) as 10 mg/mL solutions in ethanol were added to both compartments in a concentration range from 5 µg/mL to Cbr in increments of 25 µg/mL.
The conductance of the bilayers was determined by measuring the membrane conductance (G) at a constant transmembrane voltage of 50 mV. In the subsequent calculations, the membrane conductance was assumed to be related to the membrane boundary potential (φb), the potential drop between the aqueous solution and the membrane hydrophobic core, by the Boltzmann distribution (1) Gm/Gm0=exp(eΔφb/kT) where Gm and Gm^0 are the steady-state membrane conductances induced by K^+-nonactin in the presence and absence of test compounds, respectively; e, k, and T have their usual meanings.
The changes in the membrane boundary potential for the defined experimental conditions were averaged from 4 bilayers and presented as mean ± standard deviation (p ≤ 0.05).

[2] = test system: Candida albicans (ATCC 90028); assay: Antifungal growth inhibition (MIC, CO-ADD); format: cell-based; conditions: C. albicans, inhibition ≥80%, two replicates per cell
[3] = Calcein release from liposomes; conditions: for τ (characteristic time of marker release): 5 μg/mL; for IFmax (maximum release of fluorescent marker from lipid vesicles): 5 μg/mL of test compound
Method: Calcein release from liposomes. Small unilamellar vesicles (Ø100 nm) composed of 1,2-dioleoyl-sn-glycero-3-phosphocholine (DOPC) or 1,2-dioleoyl-sn-glycero-3-phospho-(1′-rac-glycerol) (DOPG) and loaded with the fluorescent dye calcein (35 mM) were obtained using a mini-extruder (Avanti Polar Lipids, Alabaster, AL, USA). At this concentration, calcein fluorescence inside the liposomes is self-quenched. The calcein that was not entrapped in the vesicles was removed by gel filtration with calcein-free solution (150 mM KCl, 10 mM HEPES, pH 7.4). An increase in the free calcein fluorescence in a surrounding medium is a measure of the disturbance of membrane integrity, in the absence and presence of test compounds (4, 20, 22). The control samples were not modified. Experimental samples were treated by 5 µg/mL of the compounds (4, 20, 22). Fluorescence of released calcein was determined on a Fluorat-02-Panorama spectrofluorimeter (Lumex, Saint-Petersburg, Russia) (excitation wavelength of 490 nm, emission wavelength of 520 nm). The detergent Triton X-100 (at a final concentration of 1%) was added at the end of experiments for complete disruption of liposomes (complete release of calcein from the vesicles).
The relative intensity of calcein fluorescence (IF, %) was calculated as:(2) IF=I−I0/Imax/0.9−I0⋅100% where I and I0 are the calcein fluorescence intensities in the presence and absence of test compounds, respectively, and Imax is the maximal fluorescence after treatment of liposomes with Triton X-100 (a factor of 0.9 was introduced to account for sample dilution by Triton X-100).

[4] = Ion permeability, pore formation and rupture of planar lipid bilayers; conditions: for formation of ion-permeable pores: DPhPG bilayers; for Cbr (threshold concentration required to rupture the bilayer): 0.1 M KCl, pH 7.4, 100 mV
Method: Synthetic 1,2-diphytanoyl-sn-glycero-3-phosphocholine (DPhPC) and 1,2-diphytanoyl-sn-glycero-3-phospho-(1′-rac-glycerol) (DPhPG) were purchased from Avanti® Polar Lipids (Avanti Polar Lipids, Inc., Alabaster, AL, USA). A KCl solution (0.1 M) was buffered with 5 mM HEPES, pH 7.4. Bilayer lipid membranes were prepared from DPhPC or DPhPG using a monolayer-opposition technique on a 50 µm-diameter aperture in a 10 µm-thick Teflon film separating the cis- and trans-compartments of the Teflon chamber. Experiments were performed in chambers containing 0.1 M KCl, 5 mM Hepes-KOH, pH 7.4.
The test compounds (4, 20, 22) were added to the cis-chamber as 10 mg/mL solutions in ethanol (to mimic the physiologically relevant conditions) up to the final concentrations and the effects of the compounds on the ion permeability of the model lipid membranes were studied. Ag/AgCl electrodes with 1.5% agarose/2 M KCl bridges were used to apply the transmembrane voltage (V) and measure the transmembrane current (I). ‘Positive voltage’ refers to the case in which the cis-side compartment is positive with respect to the trans-side. All experiments were performed at room temperature.
The current was measured using an Axopatch 200B amplifier (Molecular Devices, LLC, Orlean, CA, USA) in voltage clamp mode. Data were digitized using a Digidata 1440A and analyzed using pClamp 10.0 (Molecular Devices, LLC, Orlean, CA, USA) and Origin 8.0 (OriginLab Corporation, Northampton, MA, USA). The data were acquired at a sampling frequency of 5 kHz using low-pass filtering at 200 Hz.
The threshold concentrations (Cbr) of the derivatives required to rupture the bilayers composed of DPhPC or DPhPG at a transmembrane voltage of 100 mV were determined. Cbr-values were averaged from 3 to 4 bilayers and presented as mean ± standard error (p ≤ 0.05).
Pore-forming ability of compound 22 was studied by applying transmembrane voltages in a range of 50–200 mV with 50 mV step and by increasing the derivative concentration in the bilayer bathing solution from 10 to 150 µg/mL.

[5] = test system: Pseudomonas aeruginosa (ATCC 27853); assay: Antibacterial whole-cell growth inhibition (MIC, CO-ADD); format: cell-based; conditions: P. aeruginosa, two replicates per cell
Method: (§1) Antibacterial screening was carried out by the serial dilution method. All bacteria were cultured in the cation-adjusted Mueller Hinton broth (CAMHB) at 37 °C overnight. A sample of each culture was then diluted 40-fold in fresh broth and incubated at 37 °C for 1.5–3 h. The resultant mid-log phase cultures were diluted (CFU/mL measured by OD600) and then added into each well containing a test compound, giving a cell density of 5 × 10^5 CFU/mL and a total volume of 50 µL. All the plates were covered and incubated at 37 °C for 18 h without shaking.
(§2) Inhibition of bacterial growth was determined by measuring the absorbance at 600 nm (OD600) with a Tecan M1000 Pro monochromator plate reader. […]

[6] = test system: Acinetobacter baumannii (ATCC 19606); assay: as above; format: cell-based; conditions: A. baumannii, two replicates per cell
Method: as §1, §2

[7] = test system: Escherichia coli (ATCC 25922); assay: as above; format: cell-based; conditions: E. coli, two replicates per cell
Method: as §1, §2

[8] = test system: Staphylococcus aureus (ATCC 43300) (MRSA); assay: as above; format: cell-based; conditions: S. aureus (MRSA) ATCC 43300, inhibition ≥80%, two replicates (n = 2)
Method: as §1, §2

[9] = Candida albicans, ATCC90028, read-out: MIC
[10] = Pseudomonas aeruginosa, ATCC27853, read-out: MIC
[11] = Acinetobacter baumannii, ATCC19606, read-out: MIC
[12] = Escherichia coli, ATCC25922, read-out: MIC

Row | SMILES | −Δφb(max) (maximum decrease in the membrane boundary potential) ([1]; DPhPC) | −Δφb(max) (maximum decrease in the membrane boundary potential) ([1]; DPhPG) | MIC [2] | MIC [2, 9] | τ (characteristic time of marker release) ([3]; DOPC) | IFmax (maximum release of fluorescent marker from lipid vesicles) ([3]; DOPC) | τ (characteristic time of marker release) ([3]; DOPG) | IFmax (maximum release of fluorescent marker from lipid vesicles) ([3]; DOPG) | formation of ion-permeable pores [4] | Cbr (threshold concentration required to rupture the bilayer) ([4]; DPhPG) | MIC [5] | MIC [5, 10] | MIC [6] | MIC [6, 11] | MIC [7] | MIC [7, 12] | further results
1 | COC(=O)/C(CCC=C(C)C)=C1\[C@@H](OC(C)=O)C[C@@]2(C)[C@@H]1C[C@@H](O)[C@@H]1[C@@]3(C)CC[C@H](NCCCNCCCCN)[C@@H](C)C3CC[C@@]12C (stereo partly drawn) [Compound 20, Methyl (2Z)-2-[(3β,4α,8α,11α,14β,16β)-16-(acetyloxy)-3-({3-[(4aminobutyl)amino]propyl}amino)-11-hydroxy-4,8,10,14-tetramethylgonan-17-ylidene]-6-methylhept-5-enoate] | 29 ± 7 mV | 11 ± 4 mV | 32 µg/mL (≈ 48.6 µM) | 32 µg/mL (≈ 48.6 µM) | 0.5 ± 0.2 min | 88 ± 3% | 1.0 ± 0.1 min | 87 ± 4% | not able to form transient ion-permeable pores | 190 ± 13 µg/mL | >32 >32 µg/mL | > 32 µg/mL | 32 µg/mL (≈ 48.6 µM) | 32 µg/mL (≈ 48.6 µM) | 32 µg/mL (≈ 48.6 µM) | 32 µg/mL (≈ 48.6 µM) | concentration up to which ionic permeability of lipid bilayers is not affected ([4]; DPhPG): ≤ 200 µg/mL; MIC [8]: 4.0 µg/mL and 8.0 µg/mL
2 | COC(=O)/C(CCC=C(C)C)=C1\[C@@H](OC(C)=O)C[C@@]2(C)[C@@H]1C[C@@H](O)[C@@H]1[C@@]3(C)CC[C@H](NCCCNCCCCNCCCN)[C@@H](C)C3CC[C@@]12C (stereo partly drawn) [Compound 22, Methyl (2Z)-2-[(3β,4α,8α,11α,14β,16β)-16-(acetyloxy)-3-{[3-({4-[(3-aminopropyl)amino]butyl}amino)propyl]amino}-11-hydroxy-4,8,10,14-tetramethylgonan-17-ylidene]-6-methylhept-5-enoate] | 40 ± 8 mV | 23 ± 8 mV | 32 µg/mL (≈ 44.8 µM) | 32 µg/mL (≈ 44.8 µM) | 0.7 ± 0.2 min | 95 ± 2% | 9.8 ± 0.4 min | 83 ± 3% | able to produce stepwise current fluctuations | 135 ± 10 µg/mL | 32 µg/mL (≈ 44.8 µM) | 32 µg/mL (≈ 44.8 µM) | 32 µg/mL (≈ 44.8 µM) | 32 µg/mL (≈ 44.8 µM) | 32 µg/mL (≈ 44.8 µM) | 32 µg/mL (≈ 44.8 µM) | concentration from which (up to Cbr) stepwise current fluctuations are produced ([4]; DPhPG): 35 to 40 µg/mL; amplitude of the stepwise current fluctuations ([4]; DPhPG, pores induced by the compound): 20–160 pS; MIC ([8]; Staphylococcus aureus, read-out: MIC): 2 µg/mL (≈ 2.8 µM)

Source: article PMC10056636, “3-Amino-Substituted Analogues of Fusidic Acid as Membrane-Active Antibacterial Compounds” (Membranes, 2023)
